Reference: paper PMC8364686, “Safety, tolerability, pharmacokinetics and pharmacodynamics of single oral doses of BI 187004, an inhibitor of 11beta-hydroxysteroid dehydrogenase-1, in healthy male volunteers with overweight or obesity” (Clinical Diabetes and Endocrinology, 2021)
Where “and” joins values, the source holds several entries; their conditions need not be identical. Identical values can stand only once. Entries after “also recorded” stand apart in the source; their conditions may differ. Like-named read-outs stand apart in the source and are kept apart here.

Key:
[1] = Urinary excretion of BI 187004 (LC–MS/MS); type: in vivo, human
Description: For each accepted run, the acceptance criteria for the calibration standards and quality controls were met.

[2] = BI 187004 concentration in subcutaneous adipose tissue biopsies (LC–MS/MS); type: in vivo, human; conditions: for Kp at 10 h / Kp at 24 h / concentration at 10 h / concentration at 24 h: male, human, oral; for Kp at 10 h: read-out: AT:plasma ratio (range) 10 h; for Kp at 24 h: read-out: AT:plasma ratio (range) 24 h; for concentration at 10 h: read-out: AT C10 gMean (range); for concentration at 24 h: read-out: AT C24 gMean (range)
Procedure: The assay was qualified for the BI 187004 concentration range of 2.5—10,000 ng/g. The BI 187004 AT concentration data for study samples were generated from seven analytical runs. For each run, the acceptance criteria for the calibration standards and QC samples were met. Acceptance criteria for all sample analysis runs were ≤ 25% RSD (relative standard deviation / precision) and ± 25% RE (relative error / accuracy) for calibration standards and quality control samples.

[3] = system: healthy male volunteers with overweight or obesity; test: Safety and tolerability (adverse events, clinical laboratory, vital signs, ECG); type: in vivo, human
Procedure: Safety and tolerability of BI 187004 were assessed in a descriptive way using the following investigations: recording of adverse events, clinical laboratory parameters (haematology, coagulation, enzymes, substrates, electrolytes, hormones, and urinalysis), vital signs (blood pressure, puls rate), 12-lead ECG (electrocardiogram) with special attention to QTc prolongation, and physical examination (occurrence of findings).

[4] = system: HPA axis; test: Total urinary corticosteroid excretion (aTHF + THF + UFF + UFE + THE); conditions: for Total corticosteroids 0 – 24h (day 1) gMean (gCV [%]) / Total corticosteroids % of baseline 0 – 24h (day 1)/-24 – 0h (day -1) gMean (gCV): urine; for Total corticosteroids placebo corrected % change from baseline, adjusted gMean (90% CI) / Total corticosteroids placebo corrected % of baseline, adjusted gMean (90% CI): urine 0–24 h, ANCOVA
Procedure: The urinary samples for determination of urinary free cortisol (UFF), urinary free cortisone (UFE), urinary total cortisol (UTF), urinary total cortisone (UTE), and their metabolites 5alpha- or allo-tetrahydrocortisol (aTHF), 5beta-tetrahydrocortisol (THF), and tetrahydrocortisone (THE) were analyzed using a validated LC–MS/MS method.
The placebo corrected percentage change from baseline of the data shown in Supplementary Table 1 and 2 was analyzed statistically by an ANCOVA model with baseline as covariate on the logarithmic scale.

For N#Cc1ccc2c(c1)[C@H]1CCCN(C(=O)c3ccc4[nH]cnc4c3)[C@H]1C2 [BI 187004], the “Fraction of dose excreted in urine (renal excretion), range across dose groups” value ([1]; 0–72 h collection interval) was 3–5% and 3.00–4.93%, the “fe0-72 h (fraction eliminated in urine from 0 to 72 h)” value ([1]; 5 mg single oral dose) was 3.00% and the “fe0-72 h (fraction eliminated in urine from 0 to 72 h)” value ([1]; 10 mg single oral dose) was 4.03%. The “fe0-72 h (fraction eliminated in urine from 0 to 72 h)” value ([1]; 20 mg single oral dose) was 4.93%, the “fe0-72 h (fraction eliminated in urine from 0 to 72 h)” value ([1]; 40 mg single oral dose) was 4.21% and the “fe0-72 h (fraction eliminated in urine from 0 to 72 h)” value ([1]; 80 mg single oral dose) was 4.55%. The “fe0-72 h (fraction eliminated in urine from 0 to 72 h)” value ([1]; 160 mg single oral dose) was 4.75%, the “fe0-72 h (fraction eliminated in urine from 0 to 72 h)” value ([1]; 240 mg single oral dose) was 4.88% and the “fe0-72 h (fraction eliminated in urine from 0 to 72 h)” value ([1]; 360 mg single oral dose) was 4.25%. The “AT:plasma ratio (range) 24 h” value ([2]; 10 mg single dose, 24 h, only range printed) was “– (9.58 – 20.1)”, the “AT C24 gMean (range)” value ([2]; 10 mg single dose, adipose tissue, 24 h, only range printed) was “– (9.91 – 22.6) nmol/L” and the “Plasma concentration compared with AT concentration (times higher)” value ([2]; 24 h post dosing) was “approximately 10”. For the same molecule, the “Ratio ATC24/PlasmaC24, range across dose groups” value ([2]; 24 h post dosing) was 8.58—11.4, the Kp at 10 h ([2]; subcutaneous adipose tissue / plasma, 40 mg single dose) was 10.1 and the Kp at 24 h ([2]; subcutaneous adipose tissue / plasma, 40 mg single dose, 24 h) was 8.58. The Kp at 10 h ([2]; subcutaneous adipose tissue / plasma, 80 mg single dose) was 8.36, the Kp at 24 h ([2]; subcutaneous adipose tissue / plasma, 80 mg single dose, 24 h) was 9.62 and the Kp at 10 h ([2]; subcutaneous adipose tissue / plasma, 160 mg single dose) was 13.7. For the same molecule, the Kp at 24 h ([2]; subcutaneous adipose tissue / plasma, 160 mg single dose, 24 h) was 10.3, the Kp at 24 h ([2]; subcutaneous adipose tissue / plasma, 240 mg single dose, 24 h) was 9.96 and the Kp at 10 h ([2]; subcutaneous adipose tissue / plasma, 360 mg single dose) was 16.2. For the same molecule, the Kp at 24 h ([2]; subcutaneous adipose tissue / plasma, 360 mg single dose, 24 h) was 11.4, the Kp at 10 h ([2]; subcutaneous adipose tissue and plasma, 240 mg single dose) was 25.1 and the Kp at 10 h ([2]; subcutaneous adipose tissue, 10 mg single dose) was 10.3. It also gave a concentration at 10 h ([2]; subcutaneous adipose tissue, 10 mg single dose, adipose tissue) of 17.9 nM, a Kp at 10 h ([2]; subcutaneous adipose tissue, 20 mg single dose) of 9.97 and a Kp at 24 h ([2]; subcutaneous adipose tissue, 20 mg single dose, 24 h) of 10.8. It also gave a concentration at 10 h ([2]; subcutaneous adipose tissue, 20 mg single dose, adipose tissue) of 38.1 nM, a concentration at 24 h ([2]; subcutaneous adipose tissue, 20 mg single dose, adipose tissue, 24 h) of 17.5 nM and a concentration at 10 h ([2]; subcutaneous adipose tissue, 40 mg single dose, adipose tissue) of 80.3 nM. For the same molecule, the concentration at 24 h ([2]; subcutaneous adipose tissue, 40 mg single dose, adipose tissue, 24 h) was 27.5 nM, the concentration at 10 h ([2]; subcutaneous adipose tissue, 80 mg single dose, adipose tissue) was 128 nM and the concentration at 24 h ([2]; subcutaneous adipose tissue, 80 mg single dose, adipose tissue, 24 h) was 84.5 nM. The concentration at 10 h ([2]; subcutaneous adipose tissue, 160 mg single dose, adipose tissue) was 412 nM, the concentration at 24 h ([2]; subcutaneous adipose tissue, 160 mg single dose, adipose tissue, 24 h) was 168 nM and the concentration at 10 h ([2]; subcutaneous adipose tissue, 240 mg single dose, adipose tissue) was 653 nM. For the same molecule, the concentration at 24 h ([2]; subcutaneous adipose tissue, 240 mg single dose, adipose tissue, 24 h) was 212 nM, the concentration at 10 h ([2]; subcutaneous adipose tissue, 360 mg single dose, adipose tissue) was 857 nM and the concentration at 24 h ([2]; subcutaneous adipose tissue, 360 mg single dose, adipose tissue, 24 h) was 307 nM. For the same molecule, the Incidence of headache ([3]; 3 out of 54 subjects receiving BI 187004) was 5.6%, the “Incidence of drug-related adverse events” value ([3]; all 9 BI 187004 dose groups (9 subjects)) was 16.7% and the “Subjects reporting at least 1 adverse event” value ([3]; all BI 187004 dose groups (15 subjects)) was 27.8%. For the same molecule, the “Clinical laboratory evaluations, vital signs, ECG findings” value ([3]; single oral doses 2.5–360 mg) was “No clinically relevant deviations; also recorded: no notable findings”, the “Deaths, AEs leading to discontinuation, serious AEs” value ([3]; single oral doses 2.5–360 mg) was “no serious AEs” and the Hypoglycemic episodes ([3]; single oral doses 2.5–360 mg) was “No hypoglycemic episodes”. For the same molecule, the Safety and tolerability ([3]; single oral doses 2.5–360 mg) was “well tolerated and safe; also recorded: safe and well tolerated”, the “Total corticosteroids 0 – 24h (day 1) gMean (gCV [%])” value ([4]; 2.5 mg) was 16067.0 (18.128) μg and the “Total corticosteroids % of baseline 0 – 24h (day 1)/-24 – 0h (day -1) gMean (gCV)” value (“Total corticosteroids %” for short) ([4]; 2.5 mg) was 161.3 (44.4) %. The “Total corticosteroids placebo corrected % change from baseline, adjusted gMean (90% CI)” value ([4]; 2.5 mg) was 30.3 (11.5, 52.2) 0.0062%, the “Total corticosteroids placebo corrected % of baseline, adjusted gMean (90% CI)” value ([4]; 2.5 mg) was 130.3% and 130.3 (111.5, 152.2) % and the “Total corticosteroids 0 – 24h (day 1) gMean (gCV [%])” value ([4]; 5 mg) was 24324.0 (23.620) μg. The “Total corticosteroids %” value ([4]; 5 mg) was 179.9 (21.8) %, the “Total corticosteroids placebo corrected % change from baseline, adjusted gMean (90% CI)” value ([4]; 5 mg) was 72.1 (47.7, 100.6) <0.0001% and the “Total corticosteroids placebo corrected % of baseline, adjusted gMean (90% CI)” value ([4]; 5 mg) was 172.1 (147.7, 200.6) %. The “Total corticosteroids 0 – 24h (day 1) gMean (gCV [%])” value ([4]; 10 mg) was 23965.4 (24.142) μg, the “Total corticosteroids %” value ([4]; 10 mg) was 178.1 (24.5) % and the “Total corticosteroids placebo corrected % change from baseline, adjusted gMean (90% CI)” value ([4]; 10 mg) was 69.9 (45.8, 98.1) <0.0001%. For the same molecule, the “Total corticosteroids placebo corrected % of baseline, adjusted gMean (90% CI)” value ([4]; 10 mg) was 169.9 (145.8, 198.1) %, the “Total corticosteroids 0 – 24h (day 1) gMean (gCV [%])” value ([4]; 20 mg) was 27240.6 (5.276) μg and the “Total corticosteroids %” value ([4]; 20 mg) was 174.7 (31.3) %. For the same molecule, the “Total corticosteroids placebo corrected % change from baseline, adjusted gMean (90% CI)” value ([4]; 20 mg) was 80.9 (54.9, 111.2) <0.0001%, the “Total corticosteroids placebo corrected % of baseline, adjusted gMean (90% CI)” value ([4]; 20 mg) was 180.9 (154.9, 211.2) % and the “Total corticosteroids 0 – 24h (day 1) gMean (gCV [%])” value ([4]; 40 mg) was 24484.7 (17.661) μg. For the same molecule, the “Total corticosteroids %” value ([4]; 40 mg) was 213.9 (24.4) %, the “Total corticosteroids placebo corrected % change from baseline, adjusted gMean (90% CI)” value ([4]; 40 mg) was 86.6 (60.0, 117.5) <0.0001% and the “Total corticosteroids placebo corrected % of baseline, adjusted gMean (90% CI)” value ([4]; 40 mg) was 186.6 (160.0, 217.5) %. For the same molecule, the “Total corticosteroids 0 – 24h (day 1) gMean (gCV [%])” value ([4]; 80 mg) was 29884.0 (24.608) μg, the “Total corticosteroids %” value ([4]; 80 mg) was 189.7 (16.0) % and the “Total corticosteroids placebo corrected % change from baseline, adjusted gMean (90% CI)” value ([4]; 80 mg) was 97.5 (69.1, 130.7) <0.0001%. For the same molecule, the “Total corticosteroids placebo corrected % of baseline, adjusted gMean (90% CI)” value ([4]; 80 mg) was 197.5% and 197.5 (169.1, 230.7) %, the “Total corticosteroids 0 – 24h (day 1) gMean (gCV [%])” value ([4]; 160 mg) was 25409.0 (28.223) μg and the “Total corticosteroids %” value ([4]; 160 mg) was 171.9 (13.1) %. For the same molecule, the “Total corticosteroids placebo corrected % change from baseline, adjusted gMean (90% CI)” value ([4]; 160 mg) was 72.8 (48.1, 101.6) <0.0001%, the “Total corticosteroids placebo corrected % of baseline, adjusted gMean (90% CI)” value ([4]; 160 mg) was 172.8 (148.1, 201.6) % and the “Total corticosteroids 0 – 24h (day 1) gMean (gCV [%])” value ([4]; 240 mg) was 26872.4 (19.594) μg. For the same molecule, the “Total corticosteroids %” value ([4]; 240 mg) was 174.5 (17.4) %, the “Total corticosteroids placebo corrected % change from baseline, adjusted gMean (90% CI)” value ([4]; 240 mg) was 79.4 (53.7, 109.5) <0.0001% and the “Total corticosteroids placebo corrected % of baseline, adjusted gMean (90% CI)” value ([4]; 240 mg) was 179.4 (153.7, 209.5) %. For the same molecule, the “Total corticosteroids 0 – 24h (day 1) gMean (gCV [%])” value ([4]; 360 mg) was 26152.2 (30.046) μg, the “Total corticosteroids %” value ([4]; 360 mg) was 168.0 (28.0) % and the “Total corticosteroids placebo corrected % change from baseline, adjusted gMean (90% CI)” value ([4]; 360 mg) was 73.8 (48.8, 102.9) <0.0001%. The “Total corticosteroids placebo corrected % of baseline, adjusted gMean (90% CI)” value ([4]; 360 mg) was 173.8 (148.8, 202.9) % and the “Total urinary corticosteroid excretion (sum of UFF, UFE, aTHF, THF and THE), maximum across doses” value ([4]; placebo corrected % of baseline) was “up to 197.5%”.
